molecular target: T1, Recombinant human HSP90α (Homo sapiens, UniProt P07900); experiment: HSP90 radioligand filter binding test ([3H]17AAG competition); conditions: radioligand [3H]17AAG 0.08 μM; HSP90 1.5 μg/assay; 22° C., 30 min; read-out: HSP90 inhibition IC50
T1 construct: host or cells: E. coli
From the text: The binding of geldanamycin or 17-allylamino-17-demethoxygeldanamycin (17AAG) to HSP90 and competitive inhibition thereof can be utilised in order to determine the inhibitory activity of the compounds according to the invention (Carreras et al. 2003, Chiosis et al. 2002).
In the specific case, a radioligand filter binding test is used. The radioligand used here is tritium-labelled 17-allylaminogeldanamycin, [3H]17AAG. This filter binding test allows a targeted search for inhibitors which interfere with the ATP binding site.
Recombinant human HSP90α (E. coli expressed, 95% purity);
[3H]17AAG (17-allylaminogeldanamycin, [allylamino-2,3-^3H. Specific activity: 1.11×10^12 Bq/mmol (Moravek, MT-1717);
HEPES filter buffer (50 mM HEPES, pH 7.0, 5 mM MgCl2, BSA 0.01%) Multiscreen FB (1 μm) filter plate (Millipore, MAFBNOB 50).
The 96-well microtitre filter plates are firstly irrigated and coated with 0.1% of polyethylenimine.
The test is carried out under the following conditions:
Reaction temperature 22° C.
Reaction time: 30 min., shaking at 800 rpm
50 mM HEPES HCl, pH 7.0, 5 mM MgCl2, 0.01% (w/v) of BSA
At the end of the reaction, the supernatant in the filter plate is removed by suction with the aid of a vacuum manifold (Multiscreen Separation System, Millipore), and the filter is washed twice.
The filter plates are then measured in a beta counter (Microbeta, Wallac) with scintillator (Microscint 20, Packard).
“% of control” is determined from the “counts per minutes” values, and the IC-50 value of a compound is calculated therefrom.

| Structure (SMILES) | IC50 |
| --- | --- |
| CCCNC(=O)C1(c2ccc3nc(N)nc(C(=O)N4Cc5ccccc5C4)c3c2)CCC1 [Compound A32, 1-[2-Amino-4-(isoindoline-2-carbonyl)quinazolin-6-yl]-N-propylcyclobutanecarboxamide] | 10 to 1000 nM |
| NC(=O)CNC(=O)C1(c2ccc3nc(N)nc(C(=O)N4Cc5ccccc5C4)c3c2)CCC1 [Compound A33, 1-[2-Amino-4-(isoindoline-2-carbonyl)quinazolin-6-yl]-N-(2-amino-2-oxoethyl)cyclobutanecarboxamide] | 10 to 1000 nM |
| CC(C)CNC(=O)C1(c2ccc3nc(N)nc(C(=O)N4Cc5ccccc5C4)c3c2)CCC1 [Compound A34, 1-[2-Amino-4-(isoindoline-2-carbonyl)quinazolin-6-yl]-N-isobutylcyclobutanecarboxamide] | 10 to 1000 nM |
| CC(C)(C)NC(=O)C(C)(C)c1ccc2nc(N)nc(C(=O)N3Cc4ccccc4C3)c2c1 [Compound A35, 2-[2-Amino-4-(isoindoline-2-carbonyl)quinazolin-6-yl]-N-tert-butyl-2-methylpropanamide] | 10 to 1000 nM |
| CC(C)CNC(=O)C(C)(C)c1ccc2nc(N)nc(C(=O)N3Cc4ccccc4C3)c2c1 [Compound A37, 2-[2-Amino-4-(isoindoline-2-carbonyl)quinazolin-6-yl]-N-isobutyl-2-methylpropanamide] | 10 to 1000 nM |
| CCCNC(=O)C(C)(C)c1ccc2nc(N)nc(C(=O)N3Cc4ccccc4C3)c2c1 [Compound A38, 2-[2-Amino-4-(isoindoline-2-carbonyl)quinazolin-6-yl]-N-propyl-2-methylpropanamide] | 10 to 1000 nM |
| CC(C)(C(=O)NCC(N)=O)c1ccc2nc(N)nc(C(=O)N3Cc4ccccc4C3)c2c1 [Compound A39, 2-[2-Amino-4-(isoindoline-2-carbonyl)quinazolin-6-yl]-N-(2-amino-2-oxoethyl)-2-methylpropanamide] | 10 to 1000 nM |
| CC(C)(C(=O)NCCC#N)c1ccc2nc(N)nc(C(=O)N3Cc4ccccc4C3)c2c1 [Compound A40, 2-[2-Amino-4-(isoindoline-2-carbonyl)quinazolin-6-yl]-N-(2-cyanoethyl)-2-methylpropanamide] | 1000 to 10000 nM |
| CNC(=O)C(CCC(F)F)c1ccc2nc(N)nc(C(=O)N3Cc4ccccc4C3)c2c1 (stereo not shown) [Compound A41, 2-[2-Amino-4-(isoindoline-2-carbonyl)quinazolin-6-yl]-N-methyl-5,5-difluoropentanamide] | 10 to 1000 nM |
| CCNC(=O)C1(c2ccc3nc(N)nc(C(=O)N4Cc5ccccc5C4)c3c2)CCCC1 [Compound A53, 1-[2-Amino-4-(isoindoline-2-carbonyl)quinazolin-6-yl]-N-ethylcyclopentanecarboxamide] | 10 to 1000 nM |
| CCNC(=O)C1(c2ccc3nc(N)nc(C(=O)N4Cc5ccccc5C4)c3c2)CCOCC1 [Compound A54, 1-[2-Amino-4-(isoindoline-2-carbonyl)quinazolin-6-yl]-N-ethyltetrahydropyran-4-carboxamide] | 1000 to 10000 nM |
| CCCC(C)(C(=O)NCC)c1ccc2nc(N)nc(C(=O)N3Cc4ccccc4C3)c2c1 (stereo not shown) [Compound A55, 2-[2-Amino-4-(isoindoline-2-carbonyl)quinazolin-6-yl]-N-ethyl-2-methylpentanamide] | 10 to 1000 nM |
| CCOC(=O)C1(c2ccc3nc(N)nc(C(=O)N4Cc5ccccc5C4)c3c2)CC1 [Compound A56, Ethyl 1-[2-amino-4-(isoindoline-2-carbonyl)quinazolin-6-yl]cyclopropanecarboxylate] | 10 to 1000 nM |
| Nc1nc(C(=O)N2Cc3ccccc3C2)c2cc(C3(C(=O)O)CC3)ccc2n1 [Compound A57, 1-[2-Amino-4-(isoindoline-2-carbonyl)quinazolin-6-yl]cyclopropanecarboxylic acid] | 10 to 1000 nM |
| C=C(CC(C(=O)O)c1ccc2nc(N)nc(C(=O)N3Cc4ccccc4C3)c2c1)C(N)=O (stereo not shown) [Compound A74] | 1000 to 10000 nM |
| CN1CCN(Cc2ccc3nc(N)nc(C(=O)N4Cc5ccccc5C4)c3c2)CC1 [Compound A76, [2-amino-6-[(4-methylpiperazin-1-yl)methyl]quinazolin-4-yl]-isoindolin-2-ylmethanone] | 1000 to 10000 nM |

Continued, values first:

| IC50 | Structure (SMILES) |
| --- | --- |
| 10 to 1000 nM | CCNC(=O)C(C)(C)c1ccc2nc(N)nc(C(=O)N3Cc4ccccc4C3)c2c1 [Compound A36, 2-[2-Amino-4-(isoindoline-2-carbonyl)quinazolin-6-yl]-N-ethyl-2-methylpropanamide] |
| 1000 to 10000 nM | CCNC(=O)C(CCC(F)F)c1ccc2nc(N)nc(C(=O)N3Cc4ccccc4C3)c2c1 (stereo not shown) [Compound A42, 2-[2-Amino-4-(isoindoline-2-carbonyl)quinazolin-6-yl]-N-ethyl-5,5-difluoropentanamide] |
| 10 to 1000 nM | CCCC(C(=O)NCC)c1ccc2nc(N)nc(C(=O)N3Cc4ccccc4C3)c2c1 (stereo not shown) [Compound A43, 2-[2-Amino-4-(isoindoline-2-carbonyl)quinazolin-6-yl]-N-ethylpentanamide] |
| 10 to 1000 nM | CCCCC(C(=O)NCC)c1ccc2nc(N)nc(C(=O)N3Cc4ccccc4C3)c2c1 (stereo not shown) [Compound A44, 2-[2-Amino-4-(isoindoline-2-carbonyl)quinazolin-6-yl]-N-ethylhexanamide] |
| 10 to 1000 nM | CCNC(=O)C(CCC(C)C)c1ccc2nc(N)nc(C(=O)N3Cc4ccccc4C3)c2c1 (stereo not shown) [Compound A45, 2-[2-Amino-4-(isoindoline-2-carbonyl)quinazolin-6-yl]-N-ethyl-5-methyl-hexanamide] |
| 10 to 1000 nM | CCNC(=O)C(CC(C)C)c1ccc2nc(N)nc(C(=O)N3Cc4ccccc4C3)c2c1 (stereo not shown) [Compound A46, 2-[2-Amino-4-(isoindoline-2-carbonyl)quinazolin-6-yl]-N-ethyl-4-methylpentanamide] |
| 10 to 1000 nM | CCNC(=O)C(c1ccc2nc(N)nc(C(=O)N3Cc4ccccc4C3)c2c1)C(C)CC (stereo not shown) [Compound A47, 2-[2-Amino-4-(isoindoline-2-carbonyl)quinazolin-6-yl]-N-ethyl-3-methylpentanamide] |
| 10 to 1000 nM | CCNC(=O)C(c1ccc2nc(N)nc(C(=O)N3Cc4ccccc4C3)c2c1)C(C)C (stereo not shown) [Compound A48, 2-[2-Amino-4-(isoindoline-2-carbonyl)quinazolin-6-yl]-N-ethyl-3-methyl-butanamide] |
| 1000 to 10000 nM | C=C(CC(C(=O)NCC)c1ccc2nc(N)nc(C(=O)N3Cc4ccccc4C3)c2c1)C(N)=O (stereo not shown) [Compound A50, 2-[2-Amino-4-(isoindoline-2-carbonyl)quinazolin-6-yl]-N′-ethyl-2-methylene-pentanediamide] |

— patent US8906930B2, “Quinazoline derivatives” (Merck Patent GmbH, priority 2009, dated 2014)
